# According to PMC7712428, “Dimethoate Induces DNA Damage and Mitochondrial Dysfunction Triggering Apoptosis in Rat Bone-Marrow and Peripheral Blood Cells” (Toxics, 2020):
# Like-named read-outs stand apart in the source and are kept apart here.
# Legend:
# bone marrow cells = settings: 40 mg/kgbw; for Total Aberrations (Mean ± SD): mean percentage; for MI (Mean ± SD): mitotic index mean percentage; for Structural Aberrations Assoc: number of associations; for Structural Aberrations Brk: number of breaks; for Structural Aberrations Del: number of deletions; for Structural Aberrations Dcn: number of dicentrics; for Structural Aberrations Frag: number of fragments; for Structural Aberrations Gp: number of gaps; for Structural Aberrations Ring: number of rings
# Source text: (§1) The experimental animals—Rattus norvegicus (Wistar strain; 8–10 weeks old; 120 ± 20 gm; males only) were acquired from Indian Institute of Integrative Medicine (IIIM-CSIR) (Jammu, India), quarantined, acclimatized and sacrificed as per standard practice conforming to the University Ethical Regulations. After acclimatization, rats were divided into five groups by stratified randomization with five animals per group. […] Distilled water was used to prepare dosing solutions of test agent and injected via intraperitoneal (i.p.) injection. At 24, 48 and 72 h post-dosing, 5 rats per duration were sacrificed and necessary tissues were isolated for different cytogenetic and molecular parameters. For CA assessment, separate experimental lot was used due to colchicine treatment.
# Method of Preston et al. was used for preparing the metaphase chromosomes. An aqueous solution of Colchicine (4 mg/kgbw) was injected intraperitoneally 2 h prior to sacrificing the animal. Pre-warm KCL (0.075 M) solution was used to collect the bone marrow cells followed by incubation at 37 °C for 20 min, and then centrifuge at 1000 rpm for 10 min. After fixing the pellet in cold Cornoy’s fixative dropped onto clean pre-chilled glass slide in 30% ethanol and dried in air. 5% buffered Giemsa (pH 7.0) was used for staining. Chromosomal aberrations were analyzed on properly separated metaphases and finally photographed at 100× (Olympus U—PMTV microscope), using oil immersion. The metaphase cells from approximately 1000 cells per concentration per animal both in exposed and control replicates, expressed in percentage were considered for mitotic indices (MI).
# peripheral blood cells = settings: Mean ± SD, 40 mg/kgbw
# Source text: as §1
# Detection of DNA strand break was performed according to protocol of Singh et al. with some modifications. Briefly, blood was collected using Retro-orbital bleeding during euthanasia. 10μL whole blood cells obtained were mixed with 75 µL of 0.5% LMPA and layered onto frosted slides which was pre-coated with NMA. After putting cover slip, slides were kept for 5–10min. After gelling, removed cover slip gently and added a layer of 90 μL of LMPA. After replacing the cover slip, slides were placed on the slide tray (ice packs) till the agarose layer hardened (5–10 min). Following this, removed the cover slip and by gently immersing the slides in lysis buffer embedded cells were lysed. Cells lysis was performed in cold conditions for a minimum of 2 h in lysing solution.
# Alkaline conditions (pH > 13) were used to perform the electrophoresis. After lysis, slides were subjected in electrophoretic buffer at 4 °C for 40 min to achieve the DNA denaturation that allow the DNA unwinding and the expression of alkali labile site. Electrophoresis was then carried out at 0.74 V/cm for 40 min (300 mA; 24 volts) at 4 °C by raising or lowering buffer. Thereafter, neutralization buffer (0.4 M Tris, 10 M HCl; pH = 7.5) were employed to wash the slides. Slides were stained by 80 μL of 1× Ethidium Bromide and excess stain was removed by dipping in chilled distilled water. Slides were examined at 40× magnification under fluorescence microscope coupled with a charge coupled device camera (Olympus).
# Eosinophils = settings: 72 h treatment
# Source text: as §1
# (§2) WBCs were isolated by following the protocol of Lone et al.. Blood was collected in 0.1% EDTA from retro-orbital plexus of rat, followed by incubation for 30 min. 500 µL of blood was then added to a centrifuge tube with 1 mL FACS lysing solution. The blood was incubated for 10 min and centrifuged (2000 rpm, 10 min) at 25 °C. After discarding the supernatant, pellet was washed in 1mL FACS lysing solution followed by centrifuging at 2000 rpm for 5 min. Repeated this step twice and then pellet was put in 500 µL of PBS, leaving only WBCs.
# (§3) Protocol of Majeed and colleagues was employed for flow cytometric measurements of change in Ψm. […] Leukocytes were identified via forward and side scatter.
# Neutrophils = test system: Neutrophils
# Source text: as §1, §2, §3
# Platelets = settings: 72 h treatment
structure (smiles),measurement,setting,value
"O=P1(N(CCCl)CCCl)NCCCO1 (stereo not shown) [Cyclophosphamide, reference compound]",Total Aberrations (Mean ± SD),bone marrow cells; 24 h,"17.50 ± 3.33 ***^,a %"
same,Total Aberrations (Mean ± SD),bone marrow cells; 48 h,"13.66 ± 2.56 ***^,a %"
same,Total Aberrations (Mean ± SD),bone marrow cells; 72 h,"10.66 ± 2.61 ***^,a %"
same,MI (Mean ± SD),bone marrow cells; 24 h,"1.52 ± 0.05 **^,a %"
same,MI (Mean ± SD),bone marrow cells; 48 h,"1.56 ± 0.05 **^,a %"
same,MI (Mean ± SD),bone marrow cells; 72 h,"1.63 ± 0.03 **^,a %"
same,Structural Aberrations Assoc,bone marrow cells; 24 h,9
same,Structural Aberrations Assoc,bone marrow cells; 48 h,7
same,Structural Aberrations Assoc,bone marrow cells; 72 h,4
same,Structural Aberrations Brk,bone marrow cells; 24 h,14
same,Structural Aberrations Brk,bone marrow cells; 48 h,12
same,Structural Aberrations Brk,bone marrow cells; 72 h,9
same,Structural Aberrations Del,bone marrow cells; 24 h,23
same,Structural Aberrations Del,bone marrow cells; 48 h,18
same,Structural Aberrations Del,bone marrow cells; 72 h,15
same,Structural Aberrations Dcn,bone marrow cells; 24 h,25
same,Structural Aberrations Dcn,bone marrow cells; 48 h,18
same,Structural Aberrations Dcn,bone marrow cells; 72 h,14
same,Structural Aberrations Frag,bone marrow cells; 24 h,26
same,Structural Aberrations Frag,bone marrow cells; 48 h,21
same,Structural Aberrations Frag,bone marrow cells; 72 h,19
same,Structural Aberrations Gp,bone marrow cells; 24 h,20
same,Structural Aberrations Gp,bone marrow cells; 48 h,16
same,Structural Aberrations Gp,bone marrow cells; 72 h,13
same,Structural Aberrations Ring,bone marrow cells; 24 h,8
same,Structural Aberrations Ring,bone marrow cells; 48 h,6
same,Structural Aberrations Ring,bone marrow cells; 72 h,3
same,Olive Tail Moment,peripheral blood cells; 24 h,"12.52 ± 0.81 ***^,a"
same,Tail Length (µm),peripheral blood cells; 24 h,"51.01 ± 3.71 ***^,a µm"
same,Olive Tail Moment,peripheral blood cells; 48 h,"11.28 ± 0.84 ***^,a"
same,Tail Length (µm),peripheral blood cells; 48 h,"40.91 ± 2.86 ***^,a µm"
same,Olive Tail Moment,peripheral blood cells; 72 h,"8.23 ± 0.73 ***^,a"
same,Tail Length (µm),peripheral blood cells; 72 h,"38.51 ± 1.05 ***^,a µm"
same,MMP loss (membrane potential loss),Eosinophils,54%
same,P9: percentage of reduced mitochondrial membrane potential (MMP loss),"Neutrophils; Figure 7, one experiment, Positive Control",10.9%
same,MMP loss (membrane potential loss),"Neutrophils; neutrophils, 72 h treatment",93.2%
same,MMP loss (membrane potential loss),Platelets,81.1%
